# In ChEMBL document CHEMBL1140781, “4-Aminopyridine derivatives with anticholinesterase and antiamnesic activity” (Bioorg Med Chem Lett, 2008):
# Columns and labels:
# Acetylcholinesterase = Acetylcholinesterase (Homo sapiens, UniProt P22303); assay: Inhibition of acetylcholinesterase
# Cholinesterase = Cholinesterase (Homo sapiens, UniProt P06276); assay: Inhibition of butyrylcholinesterase
# Rattus norvegicus [1] = assay: Antiamnesic activity in scopolamine-induced memory deficit rat assessed as training trial latency time at 0.02 mg/kg, ip; format: functional; details: route intraperitoneal
# Rattus norvegicus [2] = assay: Antiamnesic activity in scopolamine-induced memory deficit rat assessed as training trial latency time at 1.0 mg/kg, ip; format: functional; details: route intraperitoneal
# Rattus norvegicus [3] = assay: Antiamnesic activity in scopolamine-induced memory deficit rat assessed as training trial latency time at 100 mg/kg, ip; format: functional; details: route intraperitoneal
# Rattus norvegicus [4] = assay: Antiamnesic activity in scopolamine-induced memory deficit rat assessed as retention trial latency time at 0.02 mg/kg, ip after 24 hrs; format: functional; details: route intraperitoneal
# Rattus norvegicus [5] = assay: Antiamnesic activity in scopolamine-induced memory deficit rat assessed as retention trial latency time at 1.0 mg/kg, ip after 24 hrs; format: functional; details: route intraperitoneal
# Rattus norvegicus [6] = assay: Antiamnesic activity in scopolamine-induced memory deficit rat assessed as retention trial latency time at 100 mg/kg, ip after 24 hrs; format: functional; details: route intraperitoneal
# Rattus norvegicus [7] = assay: Antiamnesic activity in scopolamine-induced memory deficit rat assessed as training trial time at 0.024 mg/kg, ip; format: functional; details: route intraperitoneal
# Rattus norvegicus [8] = assay: Antiamnesic activity in scopolamine-induced memory deficit rat assessed as training trial latency time at 0.24 mg/kg, ip; format: functional; details: route intraperitoneal
# Rattus norvegicus [9] = assay: Antiamnesic activity in scopolamine-induced memory deficit rat assessed as training trial latency time at 1.2 mg/kg, ip; format: functional; details: route intraperitoneal
# Rattus norvegicus [10] = assay: Antiamnesic activity in scopolamine-induced memory deficit rat assessed as training trial latency time at 2.4 mg/kg, ip; format: functional; details: route intraperitoneal
# Rattus norvegicus [11] = assay: Antiamnesic activity in scopolamine-induced memory deficit rat assessed as retention trial latency time at 0.024 mg/kg, ip after 24 hrs; format: functional; details: route intraperitoneal
# Rattus norvegicus [12] = assay: Antiamnesic activity in scopolamine-induced memory deficit rat assessed as retention trial latency time at 0.24 mg/kg, ip after 24 hrs; format: functional; details: route intraperitoneal
# Rattus norvegicus [13] = assay: Antiamnesic activity in scopolamine-induced memory deficit rat assessed as retention trial latency time at 1.2 mg/kg, ip after 24 hrs; format: functional; details: route intraperitoneal
# Rattus norvegicus [14] = assay: Antiamnesic activity in scopolamine-induced memory deficit rat assessed as retention trial latency time at 2.4 mg/kg, ip after 24 hrs; format: functional; details: route intraperitoneal
# Rattus norvegicus [15] = assay: Antiamnesic activity in scopolamine-induced memory deficit rat assessed as training trial latency time at 17.37 mg/kg, ip; format: functional; details: route intraperitoneal
# Rattus norvegicus [16] = assay: Antiamnesic activity in scopolamine-induced memory deficit rat assessed as training trial latency time at 34.73 mg/kg, ip; format: functional; details: route intraperitoneal
# Rattus norvegicus [17] = assay: Antiamnesic activity in scopolamine-induced memory deficit rat assessed as retention trial latency time at 17.37 mg/kg, ip after 24 hrs; format: functional; details: route intraperitoneal
# Rattus norvegicus [18] = assay: Antiamnesic activity in scopolamine-induced memory deficit rat assessed as retention trial latency time at 34.73 mg/kg, ip after 24 hrs; format: functional; details: route intraperitoneal
# Rattus norvegicus [19] = assay: Antiamnesic activity in scopolamine-induced memory deficit rat assessed as training trial latency time at 0.01 mg/kg, ip; format: functional; details: route intraperitoneal
# Rattus norvegicus [20] = assay: Antiamnesic activity in scopolamine-induced memory deficit rat assessed as training trial latency time at 0.5 mg/kg, ip; format: functional; details: route intraperitoneal
# Rattus norvegicus [21] = assay: Antiamnesic activity in scopolamine-induced memory deficit rat assessed as training trial latency time at 50 mg/kg, ip; format: functional; details: route intraperitoneal
# Rattus norvegicus [22] = assay: Antiamnesic activity in scopolamine-induced memory deficit rat assessed as retention trial latency time at 0.01 mg/kg, ip after 24 hrs; format: functional; details: route intraperitoneal
# Rattus norvegicus [23] = assay: Antiamnesic activity in scopolamine-induced memory deficit rat assessed as retention trial latency time at 0.5 mg/kg, ip after 24 hrs; format: functional; details: route intraperitoneal
# Rattus norvegicus [24] = assay: Antiamnesic activity in scopolamine-induced memory deficit rat assessed as retention trial latency time at 50 mg/kg, ip after 24 hrs; format: functional; details: route intraperitoneal
# Rattus norvegicus [25] = assay: Antiamnesic activity in scopolamine-induced memory deficit rat assessed as training trial latency time at 0.001 mg/kg, ip; format: functional; details: route intraperitoneal
# Rattus norvegicus [26] = assay: Antiamnesic activity in scopolamine-induced memory deficit rat assessed as training trial latency time at 0.005 mg/kg, ip; format: functional; details: route intraperitoneal
# Rattus norvegicus [27] = assay: Antiamnesic activity in scopolamine-induced memory deficit rat assessed as training trial latency time at 0.1 mg/kg, ip; format: functional; details: route intraperitoneal
# Rattus norvegicus [28] = assay: Antiamnesic activity in scopolamine-induced memory deficit rat assessed as retention trial latency time at 0.001 mg/kg, ip after 24 hrs; format: functional; details: route intraperitoneal
# Rattus norvegicus [29] = assay: Antiamnesic activity in scopolamine-induced memory deficit rat assessed as retention trial latency time at 0.005 mg/kg, ip after 24 hrs; format: functional; details: route intraperitoneal
# Rattus norvegicus [30] = assay: Antiamnesic activity in scopolamine-induced memory deficit rat assessed as retention trial latency time at 0.1 mg/kg, ip after 24 hrs; format: functional; details: route intraperitoneal
# Sequence of Acetylcholinesterase (P22303 whole entry): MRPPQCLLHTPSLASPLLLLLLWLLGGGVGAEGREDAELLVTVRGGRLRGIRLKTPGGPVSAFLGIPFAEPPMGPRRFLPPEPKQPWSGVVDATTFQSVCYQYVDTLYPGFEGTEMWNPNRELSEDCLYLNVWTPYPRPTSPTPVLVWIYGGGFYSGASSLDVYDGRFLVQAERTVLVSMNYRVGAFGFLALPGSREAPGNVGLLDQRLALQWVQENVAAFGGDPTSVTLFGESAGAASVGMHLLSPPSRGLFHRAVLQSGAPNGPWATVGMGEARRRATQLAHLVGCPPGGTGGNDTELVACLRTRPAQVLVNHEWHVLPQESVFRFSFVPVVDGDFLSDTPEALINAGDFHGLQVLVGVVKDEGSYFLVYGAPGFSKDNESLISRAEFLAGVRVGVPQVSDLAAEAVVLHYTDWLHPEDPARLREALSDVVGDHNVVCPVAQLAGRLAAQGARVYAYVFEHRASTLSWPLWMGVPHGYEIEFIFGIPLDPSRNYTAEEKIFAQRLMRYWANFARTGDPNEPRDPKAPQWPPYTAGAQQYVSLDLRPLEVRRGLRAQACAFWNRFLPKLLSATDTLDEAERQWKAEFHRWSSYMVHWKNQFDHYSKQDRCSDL
# Sequence of Cholinesterase (P06276 whole entry): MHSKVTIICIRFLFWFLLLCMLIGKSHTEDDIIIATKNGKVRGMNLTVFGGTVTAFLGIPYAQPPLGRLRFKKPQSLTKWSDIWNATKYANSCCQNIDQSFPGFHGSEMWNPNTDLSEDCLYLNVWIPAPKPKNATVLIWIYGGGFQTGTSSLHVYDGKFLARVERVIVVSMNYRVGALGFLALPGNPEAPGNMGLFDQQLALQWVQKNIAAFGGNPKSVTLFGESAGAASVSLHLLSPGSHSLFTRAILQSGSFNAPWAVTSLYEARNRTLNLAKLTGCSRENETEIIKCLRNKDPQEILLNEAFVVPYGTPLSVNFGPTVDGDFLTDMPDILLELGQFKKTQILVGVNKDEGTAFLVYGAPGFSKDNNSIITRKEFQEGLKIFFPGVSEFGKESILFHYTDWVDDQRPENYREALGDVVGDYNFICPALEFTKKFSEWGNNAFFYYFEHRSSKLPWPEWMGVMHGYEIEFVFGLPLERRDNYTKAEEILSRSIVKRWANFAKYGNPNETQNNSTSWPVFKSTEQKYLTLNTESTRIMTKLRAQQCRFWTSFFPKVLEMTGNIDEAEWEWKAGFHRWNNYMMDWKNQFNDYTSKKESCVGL
smiles,measurement,setting,value
C[N+](C)(C)CCOC(=O)Nc1ccncc1.[I-],Ki,Acetylcholinesterase,159 µM
same,Ki,Cholinesterase,754 µM
same,Time,Rattus norvegicus [1],37.3 s
same,Time,Rattus norvegicus [2],21.4 s
same,Time,Rattus norvegicus [3],30.6 s
same,Time,Rattus norvegicus [4],40.4 s
same,Time,Rattus norvegicus [5],21 s
same,Time,Rattus norvegicus [6],21.3 s
C[N+](C)(C)CCOC(=O)Nc1ccncc1Br,Ki,Acetylcholinesterase,116 µM
same,Ki,Cholinesterase,274 µM
C[N+](C)(C)CCOC(=O)Nc1cc(Cl)nc(Cl)c1.[I-],Ki,Acetylcholinesterase,64.4 µM
same,Ki,Cholinesterase,19.5 µM
same,Time,Rattus norvegicus [7],14.4 s
same,Time,Rattus norvegicus [8],19.7 s
same,Time,Rattus norvegicus [9],21.4 s
same,Time,Rattus norvegicus [10],19 s
same,Time,Rattus norvegicus [11],36.8 s
same,Time,Rattus norvegicus [12],56.9 s
same,Time,Rattus norvegicus [13],92.9 s
same,Time,Rattus norvegicus [14],32.3 s
CC(C)(C)C(=O)OCC[N+](C)(C)C.CC(C)(C)C(=O)[O-],Time,Rattus norvegicus [15],38.8 s
same,Time,Rattus norvegicus [16],14.5 s
same,Time,Rattus norvegicus [17],36.8 s
same,Time,Rattus norvegicus [18],45.8 s
CN(C)CCOC(=O)Nc1ccnc(Cl)c1,Ki,Acetylcholinesterase,208 µM
same,Ki,Cholinesterase,380 µM
CN(C)CCOC(=O)Nc1ccncc1Br,Ki,Acetylcholinesterase,316 µM
same,Ki,Cholinesterase,273 µM
CN(C)CCOC(=O)Nc1ccncc1,Ki,Acetylcholinesterase,314 µM
same,Ki,Cholinesterase,20.4 µM
same,Time,Rattus norvegicus [19],20.3 s
same,Time,Rattus norvegicus [20],43.6 s
same,Time,Rattus norvegicus [21],25.5 s
same,Time,Rattus norvegicus [22],12.1 s
same,Time,Rattus norvegicus [23],49.7 s
same,Time,Rattus norvegicus [24],39.6 s
C[N+](C)(C)CCOC(=O)Nc1ccnc(Cl)c1,Ki,Acetylcholinesterase,151 µM
same,Ki,Cholinesterase,161 µM
CN(C)CCOC(=O)Nc1cc(Cl)nc(Cl)c1,Ki,Acetylcholinesterase,140 µM
same,Ki,Cholinesterase,174 µM
Nc1ccncc1 [DALFAMPRIDINE],Time,Rattus norvegicus [25],20.8 s
same,Time,Rattus norvegicus [26],22.1 s
same,Time,Rattus norvegicus [19],46.3 s
same,Time,Rattus norvegicus [27],20.3 s
same,Time,Rattus norvegicus [28],38.5 s
same,Time,Rattus norvegicus [29],92.3 s
same,Time,Rattus norvegicus [22],63.5 s
same,Time,Rattus norvegicus [30],33.6 s
